Series [1] deals with human lung carcinoma (LX-1). The experiment in a line: Human tumor clonogenic (stem cell) assay, lung carcinoma. Type of series: cell-based. The note with it: for T/C (treated/control colonies): Lung Carcinoma. As for the experimental part: (§1) This test was performed essentially by the method of A. Hamburger and S. Salmon, Primary bioassay of human tumor stem cells., Science, 197: 461-463 (1977). Human colon carcinoma (CX-1) and human lung carcinoma (LX-1) tumors were obtained from the National Cancer Institute and propagated in athymic Balb/c mice. Freshly removed tumors were dispersed with trypsin 0.25% and 5×10^4 lung carcinoma cells or 1×10^5 colon carcinoma cells in soft (0.3%) agarose medium containing 0.1 ml of test drug were plated onto a solidified (0.5%) agarose base medium in 35 mm grided dishes. Cultures were incubated at 37° C. in a humidified 5% carbon dioxide in air atmosphere. Colonies were counted after 10-11 days. A compound is considered active if the treated/control (T/C) value is ≤30%, representing a 70% cell kill.

The subject of series [2] is human colon carcinoma (CX-1). Put plainly: Human tumor clonogenic (stem cell) assay, colon carcinoma. Type of series: cell-based. As for the experimental part: as §1
A short description of series [3]: Stability in solution as a function of pH. It is filed as physicochemical.

Consider `C[C@H](N)C(=O)N[C@@H](COC(=O)C=[N+]=[N-])C(=O)O` [LL-D05139β, N-L-alanyl-L-serine diazoacetate], for which the “T/C (treated/control colonies)” value in series [1] (concentration 2 mgc/ml) turned out to be 23.2%; in series [1] (concentration 20 mgc/ml), 17.8%; in series [1] (concentration 200 mgc/ml), 13.0%; in series [2] (Colon Carcinoma, concentration 2 mgc/ml), 16.0%. Further, the “Activity in human tumor clonogenic assay (active if T/C ≤30%)” value in series [1] (human lung (LX-1) carcinoma, at 2.0 mcg/ml and higher doses) is “active”; in series [2] (colon (CX-1) carcinoma, at 2.0 mcg/ml and higher doses) it was “active”. The Stability in solution result is listed as “Decomposes rapidly” in series [3] (below pH 5.0) and “stable” in series [3] (weakly basic solutions).

Source of the values: patent publication US4568646A, “Preparation of antibiotic LL-D05139β from cultures of Glycomyces harbinensis, gen. nov., sp. nov” (American Cyanamid Company, priority 1985, dated 1986).
